Experimental data published in PubChem BioAssay AID276 (DTP/NCI, 2004).
Several values for one entry are separate records, joined by “and”; a condition that tells them apart may be missing. Equal entries are not always repeated. Inconclusive results and toxic doses are left out. How the source made its calls: active means survival T/C of 150% or more; inactive means T/C below 125% in these data.

Tested on: B6C3F1 mice, Lewis lung carcinoma iv, survival T/C
Assay: NCI In Vivo Anticancer Drug Screen. Data for tumor model Lewis Lung Carcinoma (intravenous) in B6C3F1 mice
Details: endpoint: median survival time, schedule: Q01DX009 (ip), higher = longer survival
Summary of the method: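 Read-out is survival, expressed as the treated-group measurement over the vehicle control-group measurement. Animals bore a transplantable tumor and were given compound.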

[1] = dose: 6.25 mg/kg/injection, vehicle: saline
[2] = dose: 12.5 mg/kg/injection, vehicle: saline
[3] = dose: 25.0 mg/kg/injection, vehicle: saline
[4] = dose: 12.5 mg/kg/injection, vehicle: saline with Tween-80
[5] = dose: 25.0 mg/kg/injection, vehicle: saline with Tween-80
[6] = dose: 50.0 mg/kg/injection, vehicle: saline with Tween-80
[7] = dose: 3.12 mg/kg/injection, vehicle: saline with Tween-80
[8] = dose: 6.25 mg/kg/injection, vehicle: saline with Tween-80
[9] = dose: 100.0 mg/kg/injection, vehicle: saline with Tween-80
[10] = dose: 25.0 mg/kg/injection, vehicle: Klucel (hydroxypropylcellulose) (HPC)
[11] = dose: 50.0 mg/kg/injection, vehicle: Klucel (hydroxypropylcellulose) (HPC)
[12] = dose: 100.0 mg/kg/injection, vehicle: Klucel (hydroxypropylcellulose) (HPC)
[13] = dose: 200.0 mg/kg/injection, vehicle: Klucel (hydroxypropylcellulose) (HPC)
[14] = dose: 400.0 mg/kg/injection, vehicle: Klucel (hydroxypropylcellulose) (HPC)

Measured: T/C

CCCC(=O)O.CCCC(=O)O.CCCC(=O)O.CCCC(=O)O.[Rh].[Rh]
inactive: dose: 0.03 mg/kg/injection, vehicle: saline + alcohol 95 % of control | dose: 0.06 mg/kg/injection, vehicle: saline + alcohol 97 % of control and 100 % of control | dose: 0.12 mg/kg/injection, vehicle: saline + alcohol 93 % of control and 100 % of control | dose: 0.25 mg/kg/injection, vehicle: saline + alcohol 91 % of control and 102 % of control | dose: 0.5 mg/kg/injection, vehicle: saline + alcohol 92 % of control and 97 % of control | dose: 1.0 mg/kg/injection, vehicle: saline + alcohol 91 % of control and 96 % of control

C[C@@H]1C[C@@H]([C@H](O)CC2CC(=O)NC(=O)C2)C(=O)[C@@H](C)C1
inactive: [1] 100 % of control | [2] 105 % of control | [3] 102 % of control

NS(=O)(=O)OCCCCCCCOS(N)(=O)=O
inactive: [4] 91 % of control | [5] 98 % of control | [6] 88 % of control

CC(C)[C@](O)(C(=O)OCC1=CCN2CC[C@@H](O)[C@@H]12)[C@H](C)O
inactive: dose: 25.0 mg/kg/injection, vehicle: water 100 % of control | dose: 50.0 mg/kg/injection, vehicle: water 97 % of control | dose: 100.0 mg/kg/injection, vehicle: water 100 % of control | dose: 200.0 mg/kg/injection, vehicle: water 109 % of control | dose: 400.0 mg/kg/injection, vehicle: water 102 % of control

CCc1ccc(C2=C(O)C(=O)C(c3ccc(CC)cc3)=C(O)C2=O)cc1
inactive: [7] 111 % of control | dose: 6.0 mg/kg/injection, vehicle: saline with Tween-80 105 % of control | [8] 111 % of control | dose: 12.0 mg/kg/injection, vehicle: saline with Tween-80 103 % of control | [4] 117 % of control | [5] 114 % of control and 88 % of control | [6] 103 % of control | [9] 101 % of control

C[C@]12C=CC(=O)C=C1CC[C@@H]1[C@@H]2[C@@H](O)C[C@@]2(C)[C@H]1CC[C@]2(O)C(=O)CO
inactive: [10] 107 % of control | [11] 118 % of control | [12] 107 % of control | [13] 118 % of control | [14] 107 % of control

COc1cc2cc[n+](C)c(Cc3ccccc3)c2cc1OC
inactive: dose: 3.13 mg/kg/injection, vehicle: saline with Tween-80 112 % of control | [8] 120 % of control | [4] 96 % of control | [5] 99 % of control | [6] 91 % of control

CN(C)c1ccc2c(NCCCCCCNc3ccnc4cc(N(C)C)ccc34)ccnc2c1
inactive: dose: 1.56 mg/kg/injection, vehicle: distilled water + Tween-80 + alcohol 97 % of control | dose: 3.12 mg/kg/injection, vehicle: distilled water + Tween-80 + alcohol 106 % of control | dose: 6.25 mg/kg/injection, vehicle: distilled water + Tween-80 + alcohol 111 % of control | dose: 12.5 mg/kg/injection, vehicle: distilled water + Tween-80 + alcohol 97 % of control | dose: 25.0 mg/kg/injection, vehicle: distilled water + Tween-80 + alcohol 116 % of control

O=C(c1cccnc1)c1cc(-c2ccccn2)c(=O)n2ccccc12
inactive: [5] 100 % of control | [6] 96 % of control | [9] 102 % of control | dose: 200.0 mg/kg/injection, vehicle: saline with Tween-80 105 % of control | dose: 400.0 mg/kg/injection, vehicle: saline with Tween-80 102 % of control

O=[n+]1c2ccccc2n([O-])c2ccccc21.[Cl][Ni][Cl]
inactive: dose: 1.56 mg/kg/injection, vehicle: saline with Tween-80 93 % of control | [7] 93 % of control | [8] 90 % of control | [4] 97 % of control | [5] 97 % of control

CCCN1COC(OCC)C(C)(C)C1 (stereo unspecified)
inactive: [4] 103 % of control and 111 % of control | [5] 93 % of control and 99 % of control | [6] 106 % of control and 112 % of control | [9] 100 % of control and 101 % of control

C#C[C@]1(O)CC[C@H]2[C@@H]3CCc4cc(O)ccc4[C@H]3CC[C@@]21C
inactive: [11] 118 % of control and 122 % of control | [12] 113 % of control and 114 % of control | [14] 107 % of control

CC1=NNC(=O)C1CCO (stereo unspecified)
inactive: dose: 6.25 mg/kg/injection, vehicle: Klucel (hydroxypropylcellulose) (HPC) 104 % of control | dose: 12.5 mg/kg/injection, vehicle: Klucel (hydroxypropylcellulose) (HPC) 96 % of control | [10] 108 % of control | [11] 92 % of control and 99 % of control | [13] 98 % of control and 108 % of control | [14] 112 % of control

S=c1nc[nH]c2nc[nH]c12
inactive: dose: 15.0 mg/kg/injection, vehicle: Klucel (hydroxypropylcellulose) (HPC) 107 % of control | dose: 30.0 mg/kg/injection, vehicle: Klucel (hydroxypropylcellulose) (HPC) 116 % of control

N/C(=N\OC(=O)Nc1ccc(CSc2ccc(Cl)cc2)o1)c1ccccn1
inactive: [10] 102 % of control | [11] 103 % of control | [12] 99 % of control | [13] 99 % of control

OCCN1CCN(CC/C=C2/c3ccccc3Sc3ccc(Cl)cc32)CC1
inactive: dose: 1.56 mg/kg/injection, vehicle: saline 99 % of control | dose: 3.12 mg/kg/injection, vehicle: saline 103 % of control | [1] 98 % of control | [2] 103 % of control | [3] 110 % of control

Nc1ccc2c(c1)CN1C(=O)c3ccccc3C1=N2
inactive: [5] 117 % of control | [6] 116 % of control
